Legend:
U2OS = experiment: MTT assay, bone (U2OS); format: cell-based, human
Protocol: (§1) Cells. HTB-9 (bladder), HeLa-S3 (cervix), DU145 (prostate), H460 (lung), MCF-7 (breast), K562 (leukemia), HCT116 (colon), HepG2 (liver), U2OS (bone), T98G (brain), SK-MEL-5 (Skin) and OVCAR 3, ES2 (ovary), Pancreas (Capan), Mouth (KB), Kidney(A498).
(§2) MTT Assay. The procedure for MTT assay followed the method described by Carmichael et al. (1987) with modifications. The cells were seeded into a 96-well plate at for 24 hours before drug-treatment. The cells were then exposed to the drugs for 48, 72, or 96 hours. After the drug-treatment, MTT (0.5 mg/mL) was added to cultures and incubated for an hour. The formazan (product of the reduction of tetrazolium by viable cells) formed and was dissolved with DMSO and the O.D. at 490 nm, and was measured by an ELISA reader. The MTT level of the cells before drug-treatment was also measured (T0). The % cell-growth (%G) is calculated as: %G = (TD-T0 / TC-T0) x 100(1), where TC or TD represents O.D. readings of control or drug-treated cells. When T0 > TD, then the cytotoxicity (LC) expressed as % of the control is calculated as: %LC = (TD-T0 / T0) × 100(2).

H460 = experiment: MTT assay, lung (H460); format: cell-based, human; conditions: MTT
Protocol: as §1, §2
Methods: • A. Cells • -- H460 cells are derived from a Human Lung large cell carcinoma. Cells were grown in RPMI 1640 medium supplemented with 10% FCS, antibiotics and glutamine. 5000 cells were seeded in a well (96-welled plate) for one day before drug-treatment • B. Drug treatment: • -- Drug: Tig-S (stored as a 1000x stock solution in DMSO) was used. • -- Drug concentration used: from 0.15 - 20 ug/ml. • -- Drug-treatment was carried out for 1, 2 and 4 days. For the 4 days incubation, cells were fed with fresh medium (with drug) on day 2. • C. At the end of the drug-treatment, cytotoxic test was performed with MTT assay. Results: • 1. Tig-S inhibits H460 cells’ growth with the IC50 of drug 3 ug/ml. • 2. […] cells growth inhibition was observed beyond drug 5 ug/ml. • 3. No dead cell was found at drug concentration in 20 ug/ml.

HTB-9 = experiment: MTT assay, bladder (HTB-9); format: cell-based, human
Protocol: as §1, §2

HCT116 = experiment: MTT assay, colon (HCT116); format: cell-based, human
Protocol: as §1, §2

Capan = experiment: MTT assay, pancreas (Capan); format: cell-based, human
Protocol: as §1, §2
• A. Cells: Capan cells are derived from Human pancreas carcinoma (pancreas). Cells were grown in RPMI 1640 medium supplemented with 10% FCS, antibiotics and glutamine. 10000 cells were seeded in a well (96-welled plate) for one day before drug-treatment • B. Drug treatment: • -- Drug: Tig-S (stored as a 1000x stock solution in DMSO) was used. • -- Drug concentration used: from 0.15 - 20 ug/ml. • -- Drug-treatment was carried out for 3 days. • C. At the end of the drug-treatment, cytotoxic test was performed with MTT assay. The percentage of drug-treated cells’ growth as compared to those of the no drug control is determined.

OVCAR3 = experiment: MTT assay, ovary (OVCAR3); format: cell-based, human; conditions: MTT
Protocol: as §1, §2

DU145 = experiment: MTT assay, prostate (DU145); format: cell-based, human
Protocol: as §1, §2

SK-Mel-5 = experiment: MTT assay, skin (SK-Mel-5); format: cell-based, human
Protocol: as §1, §2

A498 = experiment: MTT assay, kidney (A498); format: cell-based, human
Protocol: as §1, §2

MCF-7 = experiment: MTT assay, breast (MCF-7); format: cell-based, human
Protocol: as §1, §2

HepG2 = experiment: MTT assay, liver (HepG2); format: cell-based, human
Protocol: as §1, §2

T98G = experiment: MTT assay, brain (T98G); format: cell-based, human
Protocol: as §1, §2

K562 = experiment: MTT assay, leukemia (K562); format: cell-based, human
Protocol: as §1, §2

HeLa = experiment: MTT assay, cervix (HeLa); format: cell-based, human
Protocol: as §1, §2

ES2 cells = experiment: Inhibition of cell adhesion, ES2; format: cell-based, human; conditions: for ES2 cells attached to flasks compared to no drug controls / unattached cells alive: 5 ug/ml; for ES2 cells attached to flasks compared to no drug controls: 5 hours; for unattached cells alive: trypan Blue exclusion; for unattached cells alive / cells attached to flasks: ES2 or Hey8A; for cells attached to flasks: 10 ug/ml
Protocol: (§3) Methods and Results. ES2 or Hey8A cells were plated in T25 flasks with medium containing 5 ug/ml of compounds selected from structure (2A) including E4A-Tig-R, E4A-Tig-V, E4A-Tig-S, E4A-Tig-N, E4A-Tig-Q, E4A-Tig-T. Cultures were incubated for 5 hours. Attached cells were removed from flasks by trypsinization and the numbers/amounts were counted. Compared to no drug controls, 80 ± 4% of ES2 cells and 60 ± 4% of Hey8A cells were found attached to flasks under this condition. At 5 ug/ml of above compounds, over 90% of unattached cells are alive as determined by the trypan Blue exclusion assay and by their ability to re-attach to flasks when plating in medium without tested compounds. However, with 10 ug/ml tested compounds, less than 40% of cells attached to flasks and many of them are dead cells.

Hey8A cells = experiment: Inhibition of cell adhesion, Hey8A; format: cell-based; conditions: 5 ug/ml, 5 hours
Protocol: as §3

Fibronectin = Fibronectin secretion experiment (Western blot); format: cell-based; conditions: bladder, cervix, prostate, lung, breast, leukemia, colon, liver, bone, brain, skin, ovary, pancreas, mouth, kidney cells; 24 hours
Protocol: Western blot is applied in this invention as a method to detect the specific proteins in treated and untreated cells with compounds in this invention, wherein the cells are bladder, cervix, prostate, lung, breast, leukemia, colon, liver, bone, brain, Skin, ovary, Pancreas(Capan), Mouth(KB), Kidney.
Cells: targeted cells were grown in RPMI 1640 medium. 1.5 million cells were seeded in a T25 flask and grown for 24 hours before drug-treatment.
Drug-treatment: Cells cultures were replaced with fresh RPMI medium containing either 2.5 ul of DMSO (as control) [D]; or 10, 20, 30, 40, 80 ug/ml of tested compounds.
After 24 hours, aliquot of culture medium was taken out for Fibronectin determination (Western blot method).
Cell viability at 24 hours was determined by MTT assay. Cultures were replaced with RPMI medium (5 ml) with MTT and incubated for an hour. The formation of formazan was dissolved in 10 ml of DMSO and OD at 570 nm was measured (MTT units). Western Blot: Spent culture medium was mixed with SDS sample buffer, boiled for 3 minutes before loading to SDS gel. Samples were applied to a 6-10% SDS gel and electrophoresis was conducted with 100 volts for 2 hours. Protein was transferred to a nitrocellulose membrane electrophoretically. The nitrocellulose blot was incubated with the first antibody and second antibody (AP conjugated, Promega S3721). The immuno-bands were developed with BCIP/NBT color development system.
Determination of Western blot band intensity: The band-images of Western blot were captured with a digital camera and the intensity of bands was determined using “Image J” software.

cancer cells = experiment: Inhibition of cancer growth, cancer invasion, cell invasion or cancer cell invasion; format: cell-based
Text: The program is based on our purification methods and biological assays including the MTT assay. See International Application No. PCT/US05/31900, filed Sep. 7, 2005, U.S. Serial No. 11/289,142, filed Nov. 28, 2005, and U.S. Serial No. 11/131551, filed May 17, 2005, and PCT/US2008/002086, 1188-ALA-PCT, filed Feb. 15, 2008, 12/344,682, 1020-B1-US, filed Dec. 29, 2008. The details of Analysis of gene expression of ES2 cells after Y-treatment by Microarray, Data Analysis Methods and Western blot in PCT/US2008/002086, 1188-ALA-PCT, filed Feb. 15, 2008, and the cell invasion experiments methods in International Application PCT/US2010/0042240, filed Jul. 16, 2010.

ES2 = experiment: MTT assay, ovary (ES2); format: cell-based, human; conditions: MTT
Protocol: as §1, §2
Method: A. Cells • -WI38 is a Normal Lung fibroblast. Cells were grown in MEM medium supplemented with 10% FCS, antibiotics and glutamine. 20 K cells were seeded per well (96-welled plate) for one day before drug-treatment • -ES2 is an Ovary Clear cells carcinoma. Cells were grown in RPMI-1640 medium supplemented with 10% FCS, antibiotics and glutamine. 10 K cells were seeded per well (96-welled plate) for one day before drug-treatment.
B. Drug treatment: • -Drug: Tig-S. stored as 1000x stock solution in DMSO. • -Drug concentration used: from 0.15 - 20 ug/ml. • -Drug-treatment was carried out for 2 days (ES2) or 6 days (WI38). For the 6 days incubation, cells were fed with fresh medium (with drug) on day 3 and 5.
C. At the end of the drug-treatment, cytotoxic test was performed with MTT assay.

KB = experiment: MTT assay, mouth (KB); format: cell-based, human
Protocol: as §1, §2

Compound	IC50 of bone (U2OS) (U2OS) [µg/mL]	IC50 of lung (H460) (H460) [µg/mL]	IC50 of bladder (HTB-9) (HTB-9) [µg/mL]	IC50 of colon (HCT116) (HCT116) [µg/mL]	IC50 of pancreas (Capan) (Capan) [µg/mL]	IC50 of ovary (OVCAR3) (OVCAR3) [µg/mL]	IC50 of prostate (DU145) (DU145) [µg/mL]	IC50 of skin (SK-Mel-5) (SK-Mel-5) [µg/mL]	IC50 of kidney (A498) (A498) [µg/mL]	IC50 of breast (MCF-7) (MCF-7) [µg/mL]	IC50 of liver (HepG2) (HepG2) [µg/mL]	IC50 of brain (T98G) (T98G) [µg/mL]	IC50 of leukemia (K562) (K562) [µg/mL]	IC50 of cervix (HeLa) (HeLa) [µg/mL]	ES2 cells attached to flasks compared to no drug controls (ES2 cells) [%]	unattached cells alive (ES2 cells)	cells attached to flasks (ES2 cells)	Hey8A cells attached to flasks compared to no drug controls (Hey8A cells) [%]	inhibition of fibronectin secretion (Fibronectin)	anti-cancer activity (cancer cells)	also measured
CC=C(C)C(=O)OCC1(C)C(O)CCC2(C)C1CCC1(C)C2CC=C2C3CC(C)(C)C(O)C(OC(=O)C(C)=CC)C3(CO)C(O)CC21C (centres unmarked) [Tig-Q]	20	18	10	22	9	23	15	20	13	18	24	29	6	20	80 ± 4	over 90%	less than 40%	60 ± 4	20-40%	have anti-cancer activities	
CC=C(C)C(=O)OCC1(C)C(OC(=O)C(C)=CC)CCC2(C)C1CCC1(C)C2CC=C2C3CC(C)(C)C(OC(=O)C(C)=CC)C(O)C3(CO)C(O)CC21C (centres unmarked) [Tig-U]	23	19	15	26	9	27	15	24	18	25	23	22	10	17							IC50 of ovary (ES2) (ES2): 17 µg/mL; IC50 of mouth (KB) (KB): 16 µg/mL
CC=C(C)C(=O)OCC1(C)C(O)CCC2(C)C1CCC1(C)C2CC=C2C3CC(C)(C)C(OC(=O)C(C)=CC)C(O)C3(COC(=O)C(C)=CC)C(O)CC21C (centres unmarked) [Tig-V]	7	6.8	4	8		9	4	6	4.8	9		14	4	7	80 ± 4	over 90%	less than 40%	60 ± 4	20-40%	have anti-cancer activities	IC50 of ovary (ES2) (ES2): 2 µg/mL; IC50 of mouth (KB) (KB): 4.5 µg/mL
